The results in this text go back to ChEMBL document CHEMBL4414675, “Cytotoxic 20,22-Dihydrodigitoxigenin Glycosides and Other Constituents of Vallaris glabra Stems” (J Nat Prod, 2019).

The structures appear in SMILES notation.

For experiment [1], the system named is A549. Briefly: Cytotoxicity against human A549 cells assessed as reduction in cell viability by MTT assay. It is filed as functional, cell-based. (In general: Formazan colour is commonly taken as a measure of viable cells.)
In experiment [2] the test system is HeLa. Put plainly: Cytotoxicity against human HeLa cells assessed as reduction in cell viability by MTT assay. It is filed as functional, cell-based.
Experiment [3] relates to HT-29. Briefly: Cytotoxicity against human HT-29 cells assessed as reduction in cell viability by MTT assay. It is filed as functional, cell-based.
Experiment [4] concerns Vero. Put plainly: Cytotoxicity against African green monkey Vero cells assessed as reduction in cell viability by MTT assay. It is filed as cell-based. As to conditions: Chlorocebus sabaeus.
The subject of experiment [5] is KB. Briefly: Cytotoxicity against human KB cells assessed as reduction in cell viability by MTT assay. It is filed as functional, cell-based.

`C[C@H]1[C@H](C)CC[C@]2(C(=O)O)CC[C@]3(COC(=O)/C=C/c4ccc(O)cc4)C(=CC[C@@H]4[C@@]5(C)CC[C@H](O)C(C)(C)[C@@H]5CC[C@]43C)[C@H]12`: the IC50 in experiment [1] came to 2.2 µM.
With `CO[C@H]1[C@@H](O)[C@H](O[C@H]2CC[C@@]3(C)[C@H](CC[C@@H]4[C@@H]3CC[C@]3(C)[C@@H](C5=CC(=O)OC5)[C@@H](O)C[C@]43O)C2)O[C@@H](C)[C@@H]1O[C@@H]1O[C@H](CO[C@@H]2O[C@H](CO)[C@@H](O)[C@H](O)[C@H]2O)[C@@H](O)[C@H](O)[C@H]1O`, the IC50 in experiment [2], in experiment [3], in experiment [4] and in experiment [5] was more than 10 µM each time.
Consider `CO[C@H]1[C@@H](O)[C@H](O[C@H]2CC[C@@]3(C)[C@H](CC[C@@H]4[C@@H]3CC[C@]3(C)[C@@H]([C@H]5COC(=O)C5)CC[C@]43O)C2)O[C@@H](C)[C@@H]1O[C@@H]1O[C@H](CO[C@@H]2O[C@H](CO)[C@@H](O)[C@H](O)[C@H]2O)[C@@H](O)[C@H](O)[C@H]1O`, for which the concentration for half-maximal inhibition (IC50) in experiment [2], in experiment [3], in experiment [4] and in experiment [5] was more than 10 µM each time.
Turning to `CO[C@@H]1[C@@H](O[C@@H]2O[C@H](CO[C@@H]3O[C@H](CO)[C@@H](O)[C@H](O)[C@H]3O)[C@@H](O)[C@H](O)[C@H]2O)[C@H](C)O[C@@H](O[C@H]2CC[C@@]3(C)[C@H](CC[C@@H]4[C@@H]3CC[C@]3(C)[C@@H]([C@H]5COC(=O)C5)CC[C@]43O)C2)[C@@H]1OC(C)=O`, the half-maximal inhibitory concentration (IC50) in experiment [2], in experiment [3], in experiment [4] and in experiment [5] was more than 10 µM in each case.
With `CO[C@H]1[C@@H](O)[C@H](C)O[C@@H](O[C@H]2CC[C@@]3(C)[C@H](CC[C@@H]4[C@@H]3CC[C@]3(C)[C@@H](C5=CC(=O)OC5)[C@@H](O)C[C@]43O)C2)[C@@H]1O`, the IC50 came out at 6.2 µM in experiment [2], 0.3 µM in experiment [3], 0.02 µM in experiment [4] and 0.5 µM in experiment [5].
In the same order, the values of `CO[C@H]1[C@@H](O)[C@H](O[C@H]2CC[C@@]3(C)[C@H](CC[C@@H]4[C@@H]3CC[C@]3(C)[C@@H]([C@H]5COC(=O)C5)CC[C@]43O)C2)O[C@@H](C)[C@@H]1O[C@@H]1O[C@H](CO)[C@@H](O)[C@H](O)[C@H]1O` are 6.2 µM, more than 10 µM, more than 10 µM and 6.6 µM.
`CO[C@@H]1[C@@H](O)[C@H](C)O[C@@H](O[C@H]2CC[C@@]3(C)[C@H](CC[C@@H]4[C@@H]3CC[C@]3(C)[C@@H](C5=CC(=O)OC5)[C@@H](O)C[C@]43O)C2)[C@@H]1O`: the IC50 in experiment [2] is 0.08 µM; in experiment [3], 0.2 µM; in experiment [4], 1.3 µM; in experiment [5] it was 1.7 µM.
With `CO[C@H]1[C@@H](O)[C@H](C)O[C@@H](O[C@H]2CC[C@@]3(C)[C@H](CC[C@@H]4[C@@H]3CC[C@]3(C)[C@@H]([C@H]5COC(=O)C5)CC[C@]43O)C2)[C@@H]1O`, the 50% inhibitory concentration (IC50) in experiment [2] was found to be 9.3 µM; in experiment [3], 4.1 µM; in experiment [4], 9.2 µM; in experiment [5], 1.9 µM.
For `CO[C@@H]1[C@@H](O)[C@H](O[C@H]2CC[C@@]3(C)[C@H](CC[C@@H]4[C@@H]3CC[C@]3(C)[C@@H]([C@H]5COC(=O)C5)CC[C@]43O)C2)O[C@@H](C)[C@@H]1O[C@@H]1O[C@H](CO)[C@@H](O)[C@H](O)[C@H]1O`, the IC50 in experiment [2] is 1.1 µM; in experiment [3], 7.1 µM; in experiment [4], 0.5 µM; in experiment [5], 1.7 µM.
Turning to `C[C@H]1[C@H](C)CC[C@]2(C(=O)O)CC[C@]3(COC(=O)/C=C\c4ccc(O)cc4)C(=CC[C@@H]4[C@@]5(C)CC[C@H](O)C(C)(C)[C@@H]5CC[C@]43C)[C@H]12`, in experiment [2], the IC50 came to 6.1 µM.
As for `CO[C@@H]1[C@@H](O)[C@H](O[C@H]2CC[C@@]3(C)[C@H](CC[C@@H]4[C@@H]3CC[C@]3(C)[C@@H](C5=CC(=O)OC5)[C@@H](O)C[C@]43O)C2)O[C@@H](C)[C@@H]1O[C@@H]1O[C@H](CO[C@@H]2O[C@H](CO)[C@@H](O)[C@H](O)[C@H]2O)[C@@H](O)[C@H](O)[C@H]1O`, the half-maximal inhibitory concentration (IC50) in experiment [2], in experiment [3], in experiment [4] and in experiment [5] was more than 10 µM in each case.
For `CC1(C)CC[C@]2(C(=O)O)CC[C@]3(COC(=O)/C=C\c4ccc(O)cc4)C(=CC[C@@H]4[C@@]5(C)CC[C@H](O)C(C)(C)[C@@H]5CC[C@]43C)[C@@H]2C1`, the IC50 in experiment [3] was determined as 0.6 µM.
For the molecule `CO[C@@H]1[C@@H](O)[C@H](C)O[C@@H](O[C@H]2CC[C@@]3(C)[C@H](CC[C@@H]4[C@@H]3CC[C@]3(C)[C@@H]([C@H]5COC(=O)C5)CC[C@]43O)C2)[C@@H]1O`, the half-inhibitory concentration (IC50) was 0.5 µM in experiment [2], 0.2 µM in experiment [3], 0.6 µM in experiment [4] and 0.03 µM in experiment [5].
In the case of `COc1cccc2c1C(=O)c1c(O)c3c(c(O)c1C2=O)C[C@@](O)(C(=O)CO)C[C@@H]3O[C@H]1C[C@H](N)[C@H](O)[C@H](C)O1` [DOXORUBICIN], the IC50 in experiment [2] came out at 0.14 µM; in experiment [3], 0.9 µM; in experiment [4], 1.3 µM; in experiment [5], 0.2 µM.

What is called IC50 is the concentration that inhibits the measured activity by half.
